Results from patent publication US20230323028A1, “ADHESIVE PHOTOPROTECTIVE COMPOUNDS AND USES THEREOF” (SKINOSIVE, priority 2019, published 2023).

How the values were obtained:
[1] = λmax UV absorbance in solution; type: physicochemical
Method: λmax UV absorbance of diethylamino hydroxybenzoyl hexyl benzoate in ethanol/DMSO 9/1 was measured at 357 nm and λmax UV absorbance of Compound #16 was measured at 357 nm.
λmax UV absorbance of diethylamino hydroxybenzoyl hexyl benzoate in ethanol/DMSO 9/1 was measured at 357 nm and λmax UV absorbance of Compound #17 was measured at 357 nm.
λmax UV absorbance of Octocrylene in ethanol/DMSO 9/1 was measured at 305 nm and λmax UV absorbance of Compound #18 was measured at 293 nm.
λmax UV absorbance of Octocrylene in ethanol/DMSO 9/1 was measured at 305 nm and λmax UV absorbance of Compound #19 was measured at 308 nm.
λmax UV absorbance of Ecamsule in Ethanol/H2O/DMSO 5/3/2 was measured at 341 nm and λmax UV absorbance of Compound #20 was measured at 344 nm.
λmax UV absorbance of bemotrizinol in ethanol/benzyl alcohol/DMSO/Phenoxyethanol 63/18/10/9 was measured at 342 nm and λmax UV absorbance of Compound #21 was measured at 342 nm.
λmax UV absorbance of Octocrylene in ethanol was measured at 304 nm and Amax UV absorbance of Compound #23 was measured at 304 nm.

[2] = Bioadhesion in liquid phase: binding to cysteine, assayed by HPLC; settings: 1 to 2 minutes, Ethanol-1×PBS pH 6.8 (pH 6.0 for compound #23)
Method: The compounds bio adhesion was carried out in solution, for the protein binding, and for the specific binding of sulfhydryl-reactive chemical groups of cysteine. The compounds were mixed either with an equimolar solution of cysteine (two molar equivalent solution of cysteine for the compounds including two maleimides) or an excess of cysteine solution (five or ten times molar compound concentration) and were incubated 1 to 2 minutes in an Ethanol-1×PBS, pH 6.8 solution and in Ethanol-1×PBS, pH 6.0 solution for the compound #23.
The compound and the compound bound to the cysteine were identified by LC-MSD (Agilent 1260 Infinity II equipped with an Uptisphere strategy C18 or SunFire C18 column) and assayed by HPLC using an Agilent Infinity II Prime UHPLC UV detector system. The separation was achieved by using a gradient phase of water and acetonitrile on an Agilent Poroshell 120 EC-C18 column (3×100 mm, 2.7 μM).

pig skin = assay: UVB protection ex vivo on pig skin by autofluorescence quenching; settings: for UVB Fluorescence (Ex300/Em460), autofluorescence of pig skin: 4 h incubation at 37° C. in Dottisol, Mean ± SD, N = 3
Method: UVB protection has been assessed ex vivo on pig skin by measuring the autofluorescence quenching. OOM (Compound #23) and OCR (Octocrylene) were solubilized at the same molar concentration in Dottisol (isosorbide dimethyl ether), then covered 6.25 cm^2 skin square and incubated 4 hours at 37° C., washed or not with 10 mL Ethanol for 5 min on agitation. Then 7 mm diameter skin punches were cut and placed in a black 96-well plate. UVB protection was measured after respectively an excitation at 300 nm and a fluorescence emission was read at 460 nm.

[3] = Adhesion on thiolated polylysine matrix (UV absorbance of coated 96-well microplates); settings: UV absorbance at 300 nm; overnight incubation in ethanol/PBS (90%/10%); washed 10 times with ethanol
Method: (§1) Polylysine and Polylysine enriched in SH by thiolation of primary amines using Traut's reagent were used for coating 96-well microplates. Compound #23 (OOM) incubated overnight under orbital agitation on the different matrices (n=3 for each condition) (uncoated wells were used as negative controls), in an ethanol/PBS (90%/10%) solution. After incubation, each microplate well was thoroughly washed 10 times with ethanol, before measuring UV absorbance. Whole UV/Visible absorbance spectrum from 220 to 1000 nm were measured in the center of each microplate well. In addition, specific UV absorbance at 300 nm was measured by matrix scan over the whole the well as a 10×10 matrix.

[4] = Adhesion on polylysine matrix, non thiolated (UV absorbance of coated 96-well microplates); settings: UV absorbance at 300 nm; overnight incubation in ethanol/PBS (90%/10%); washed 10 times with ethanol
Method: as §1

[5] = in ethanol/benzyl alcohol/DMSO/Phenoxyethanol 63/18/10/9
[6] = equimolar cysteine:compound solution (two molar equivalents for compounds with two maleimides)
[7] = excess of cysteine (five or ten times molar compound concentration)
[8] = EtOH Wash (10 mL Ethanol, 5 min)

Compound	λmax UV absorbance ([1]; in ethanol/DMSO 9/1)	Cysteine-bound compound [2, 6]	Free compound [2, 6]	Cysteine-bound compound [2, 7]	Free compound [2, 7]	further results
COc1ccc(-c2nc(-c3ccc(OCCCNC(=O)CCN4C(=O)C=CC4=O)cc3O)nc(-c3ccc(OCCCNC(=O)CCN4C(=O)C=CC4=O)cc3O)n2)cc1 [Compound #21, 3-(2,5-dioxopyrrol-1-yl)-N-[3-[4-[4-[4-[3-[3-(2,5-dioxopyrrol-1-yl)propanoylamino]propoxy]-2-hydroxy-phenyl]-6-(4-methoxyphenyl)-1,3,5-triazin-2-yl]-3-hydroxy-phenoxy]propyl]propanamide]	–	–	–	–	–	λmax UV absorbance [1, 5]: 342 nm
CCCCCCOC(=O)c1ccccc1C(=O)c1ccc(N(CC)CC)cc1O [diethylamino hydroxybenzoyl hexyl benzoate, reference compound]	357 nm	–	–	–	–	–
N#CC(C(=O)OCCS(=O)(=O)CCNC(=O)CCN1C(=O)C=CC1=O)=C(c1ccccc1)c1ccccc1 [Compound #19, 2-cyano-3,3-diphenyl-prop-2-enoate, 2-[2-[3-(2,5-dioxopyrrol-1-yl)propanoylamino]ethylsulfonyl]ethyl ester]	308 nm	71%	29%	–	–	–
CCN(CC)c1ccc(C(=O)c2ccccc2C(=O)OCCNC(=O)CCN2C(=O)C=CC2=O)c(O)c1 [Compound #17, 2-[4-(diethylamino)-2-hydroxy-benzoyl]benzoic acid, 2-[3-(2,5-dioxopyrrol-1-yl)propanoylamino]ethyl ester]	357 nm	78%	22%	–	–	–
CCCCC(CC)COc1ccc(-c2nc(-c3ccc(OC)cc3)nc(-c3ccc(OCC(CC)CCCC)cc3O)n2)c(O)c1 (stereo not shown) [bemotrizinol, reference compound]	–	–	–	–	–	λmax UV absorbance [1, 5]: 342 nm
CCN(CC)c1ccc(C(=O)c2ccccc2C(=O)OCCOCCNC(=O)CCN2C(=O)C=CC2=O)c(O)c1 [Compound #16, 2-[4-(diethylamino)-2-hydroxybenzoyl]-benzoic acid, 2-[2-[3-(2,5-dioxopyrrol-1-yl)propanoylamino]ethoxy]ethyl ester]	357 nm	75%	25%	92%	8%	–
N#CC(C(=O)OCCCCCCCCNC(=O)CCN1C(=O)C=CC1=O)=C(c1ccccc1)c1ccccc1 [Compound #23, 8-(3-(2,5-dioxo-2,5-dihydro-1H-pyrrol-1-yl)propanamido)octyl 2-cyano-3,3-diphenylacrylate]	–	100%	0%	100%	0%	UVB Fluorescence (Ex300/Em460), autofluorescence of pig skin (pig skin; [8]): 34870 ± 2729; UVB Fluorescence (Ex300/Em460), autofluorescence of pig skin (pig skin; No Wash): 25544 ± 3797; reduction of UVB protection after ethanol wash compared to the initial protection before washing (pig skin; ethanol wash): 30%; bio adhesion on pig skin (conclusion) (pig skin; retention of UVB protection after ethanol wash): bio adhesive; UVB protection of the pig skin compared with octocrylene (OCR) (pig skin; same molar concentration, no wash): more than two times higher; bio adhesion on thiolated polylysine matrix [3]: showed a bio adhesion; bioadhesion on polylysine matrix (non thiolated) [4]: no bioadhesion; λmax UV absorbance ([1]; in ethanol): 304 nm
CC1(C)C2CCC1(CS(=O)(=O)O)C(=O)C2=Cc1ccc(C=C2C(=O)C3(CS(=O)(=O)O)CCC2C3(C)C)cc1 [Ecamsule, terephtalylidene dicamphor sulfonic acid, reference compound]	–	–	–	–	–	λmax UV absorbance ([1]; in Ethanol/H2O/DMSO 5/3/2): 341 nm
CC1(C)C2CCC1(CS(=O)(=O)NCCNC(=O)CCN1C(=O)C=CC1=O)C(=O)/C2=C\c1ccc(/C=C2\C(=O)C3(CS(=O)(=O)NCCNC(=O)CCN4C(=O)C=CC4=O)CCC2C3(C)C)cc1 [Compound #20, 3-(2,5-dioxopyrrol-1-yl)-N-[2-[[(3Z)-3-[[4-[(Z)-[4-[2-[3-(2,5-dioxopyrrol-1-yl)propanoylamino]ethylsulfamoylmethyl]-7,7-dimethyl-3-oxo-norbornan-2-ylidene]methyl]phenyl]methylene]-7,7-dimethyl-2-oxo-norbornan-1-yl]methylsulfonylamino]ethyl]propanamide]	–	85%	15%	100%	0%	λmax UV absorbance ([1]; in Ethanol/H2O/DMSO 5/3/2): 344 nm
CCCCC(CC)COC(=O)C(C#N)=C(c1ccccc1)c1ccccc1 (stereo not shown) [Octocrylene, reference compound]	305 nm	–	–	–	–	UVB Fluorescence (Ex300/Em460), autofluorescence of pig skin (pig skin; [8]): 201968 ± 11493; UVB Fluorescence (Ex300/Em460), autofluorescence of pig skin (pig skin; No Wash): 64781 ± 3246; UVB protection after the ethanol washing step (pig skin; ethanol wash): corresponds to the unprotected control; bio adhesion on thiolated polylysine matrix [3]: did not show a bio adhesion; λmax UV absorbance ([1]; in ethanol): 304 nm
N#CC(C(=O)NCCNC(=O)CCN1C(=O)C=CC1=O)=C(c1ccccc1)c1ccccc1 [Compound #18, 2-cyano-N-[2-[3-(2,5-dioxopyrrol-1-yl)propanoylamino]ethyl]-3,3-diphenyl-prop-2-enamide]	293 nm	73%	27%	99%	1%	–
